Assay results: ChEMBL document CHEMBL1148980, “Scabrolides E-G, three new norditerpenoids from the soft coral Sinularia scabra” (2004)
≈ marks a conversion by molar mass, not a printed value. Calls of active or inactive are those of the source. The rule behind the calls is not given here.

Tests used:
Format in all cases: functional
HEPA 59T/VGH = test: (§1) Cytotoxicity against human HEPA 59T/VGH cells by MTT assay
KB = test: Cytotoxicity against human KB cells by MTT assay
[1] = as §1; conditions: read-out: ED50 (the source's name)

Row | SMILES | Activity (HEPA 59T/VGH) | Activity (KB) | EC50 [1] | EC50 (KB; read-out: ED50 (the source's name))
1 | C=C(C)[C@@H]1CC(=O)C[C@H](O)[C@@]2(O)[C@H]1C=C1C(=O)O[C@@H]3C[C@](C)(O)[C@H]2[C@H]13 | inactive | inactive | – | –
2 | C=C(C)[C@H]1C/C=C2\C(=O)O[C@H](C[C@]3(C)CC(=O)[C@H](CC(=O)C1)O3)[C@H]2O [SCABROLIDE E] | – | – | 0.5 µg/mL (≈ 1.44 µM) | 0.7 µg/mL (≈ 2.01 µM)
